Assay results from PubChem BioAssay (NCI).
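Exposure lasted 48 hours, with cells grown in 96-well plates and compounds tested at five concentrations. At the GI50, growth is halved. TGI is the concentration that stops growth completely.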

Assays:
Assay in all cases: inhibition of tumour cell growth, NCI panel, 48 h
KM12 colon = test system: KM12 colon
M14 melanoma = test system: M14 melanoma
OVCAR-5 ovarian = test system: OVCAR-5 ovarian
SK-MEL-2 melanoma = test system: SK-MEL-2 melanoma
SK-MEL-5 melanoma = test system: SK-MEL-5 melanoma
SR leukemia = test system: SR leukemia
T-47D breast = test system: T-47D breast
U251 CNS = test system: U251 CNS
UO-31 renal = test system: UO-31 renal
HS 578T breast = test system: HS 578T breast

Compound	TGI (KM12 colon) [µM]	TGI (M14 melanoma) [µM]	TGI (OVCAR-5 ovarian) [µM]	TGI (SK-MEL-2 melanoma) [µM]	TGI (SK-MEL-5 melanoma) [µM]	TGI (SR leukemia) [µM]	TGI (T-47D breast) [µM]	TGI (U251 CNS) [µM]	TGI (UO-31 renal) [µM]	TGI (HS 578T breast) [µM]	GI50 (HS 578T breast) [µM]	GI50 (KM12 colon) [µM]	GI50 (OVCAR-5 ovarian) [µM]	GI50 (SK-MEL-2 melanoma) [µM]	GI50 (T-47D breast) [µM]	GI50 (U251 CNS) [µM]	GI50 (SK-MEL-5 melanoma) [µM]	GI50 (SR leukemia) [µM]	GI50 (UO-31 renal) [µM]
O=C1[C@H](O)[C@@H]2C(O)O[C@H]3[C@@H]2N1C[C@H]3[Si](c1ccccc1)(c1ccccc1)c1ccccc1 (stereo partly drawn)	> 100	> 100	> 100	> 100	> 100	> 100	> 100	> 100	> 100										
COc1cc2c(c3c1c(=O)c1ccccc1n3C)C=CC1(CCCC1)O2	25.3	29.1	27	33.6	25.6	52.8		31.9		9.75									
O=S1(=O)c2ccccc2Oc2ccc(C(/C=N/O)=N/O)cc21	> 100	> 100	> 100	70.7			35.6	> 100	68.8										
C1=C(c2ccccc2)SC(N2CCCCC2)S1 (stereo not drawn)	> 100	> 100	> 100	> 100		> 100		> 100	> 100										
CCOC(=O)c1c(C)n(Cc2ccc(Cl)cc2Cl)c2c1cc(O)c1[nH]c3c(c12)CCCC3	67.2	86.3	> 100	60.9	44.5	0.379	> 100	> 100	51.3										
CCn1nc(C)c2c1C(=O)NCC(=O)N2	> 100	> 100	> 100		> 100			> 100	> 100	> 100									
Nc1n(CC(=O)c2ccccc2)nc2sc(-c3ccccc3)n[n+]12	39.3	> 100	> 100	> 100	22		> 100	34.2	40.3	> 100									
C=CCn1c(=O)c(C)cn(COCCO)c1=O	> 100	> 100	> 100	> 100	> 100		> 100	> 100	> 100	> 100									
O=c1[nH]/c(=C/c2ccc(OCc3ccccc3)cn2)c(=O)[nH]/c1=C/c1ccccc1	> 100	> 100	> 100	> 100		14.4	> 100	> 91.6	> 100	> 100									
Cn1c(=O)c2c(nc3n(CC(O)CCl)c(=O)ccn23)n(C)c1=O (stereo not drawn)	> 100	> 100	> 100	> 100	> 100		> 100	> 100	> 100	> 100									
Cc1cc(C)nc(NS(=O)(=O)c2ccc(NC(=O)c3c4ccccc4nc4ccccc34)cc2)n1	> 100	> 100	> 100	> 100	> 100	> 100		> 100	> 100										
CC(=O)NC1C(OCc2ccccc2)OC(CO)C(O)C1OCC(=O)N1CCCC1C(=O)N[C@@H](CCC(=O)NCCCCNc1c2ccccc2nc2cccc([N+](=O)[O-])c12)C(N)=O (stereo partly drawn)	> 100	40.5	88.5	32.7		> 100	> 100	48.9	> 100	74.8									
Cc1ccc(C)c(NC(=O)C(=O)C(C(=O)c2ccc3ccccc3c2)C2OC(=O)c3ccccc32)c1 (stereo not drawn)	33.2	28.8	42.5	44.7	31.5	> 100		16.2	31.6										
NC(=O)Nc1c(Cl)cc(S(N)(=O)=O)cc1Cl	> 100	> 100	> 100	> 100	> 100			> 100	> 100	> 100									
O=C(O)CC(Cc1ccccc1Cl)C(=O)O (stereo not drawn)	> 100	> 100	> 100	> 100	> 100		> 100	> 100	> 100	> 100									
Cn1nc2ccc([N+](=O)[O-])c(Cn3nnc4ccccc43)c2n1	> 100	> 100	> 100	> 100	> 100		> 100	> 100	> 100	> 100									
N#Cc1c(-c2ccc(Cl)cc2)c2c(nn3c4ccc5ccccc5c4nnc23)[nH]c1=O	13.3	6.14	23.4	5.77	6.27		2.66	5.38	12.6	6.54									
CN(C)CC(O)c1ccc(Cl)c2ccccc12 (stereo not drawn)	> 100	33	> 100	39.7	31.4		84.4	> 90.6	> 62.2	> 100									
CCN(CCCOc1ccccc1)CCN(CC)CCCOc1ccccc1	27.8	34.6	38.9	32.3	5.44	26.6		27.5	22.3	30.4									
CN1CCC(CNc2cc(C3(C(=O)Nc4cc(C(=O)Nc5ccc(Cl)c(C(F)(F)F)c5)ccc4F)CC3)ncn2)CC1	6.91		11.4	4.02			26.8	3.62		6.19	1.99	2.58	3.28	1.9	4.14	1.63			
CC1=NNC(=O)C1C1C(=O)NN=C(c2c[nH]c3ccccc23)C1Br (stereo not drawn)	34.4	> 100	> 100	84.8	> 100		> 100	> 100	> 100	> 100									
O=C(Nc1ccc(N2C(=O)CSC2c2ccccc2O)cc1)c1ccc(N2C(=O)CSC2c2ccccc2O)cc1 (stereo not drawn)	> 100	61.3	> 100	> 100	> 100		> 100	> 100	> 100	> 100									
COc1cc2c(c(O)c1O)C(=O)C1CCC(=O)N1C2c1cccc2ccccc12 (stereo not drawn)	> 50	> 50	> 50	> 50		> 50	> 50	> 50	> 50	> 50									

Compound	TGI (KM12 colon) [µM]	TGI (M14 melanoma) [µM]	TGI (OVCAR-5 ovarian) [µM]	TGI (SK-MEL-2 melanoma) [µM]	TGI (SK-MEL-5 melanoma) [µM]	TGI (SR leukemia) [µM]	TGI (T-47D breast) [µM]	TGI (U251 CNS) [µM]	TGI (UO-31 renal) [µM]	TGI (HS 578T breast) [µM]	GI50 (HS 578T breast) [µM]	GI50 (KM12 colon) [µM]	GI50 (OVCAR-5 ovarian) [µM]	GI50 (SK-MEL-2 melanoma) [µM]	GI50 (T-47D breast) [µM]	GI50 (U251 CNS) [µM]	GI50 (SK-MEL-5 melanoma) [µM]	GI50 (SR leukemia) [µM]	GI50 (UO-31 renal) [µM]
Oc1cc(Cc2ccccc2)c(Cc2ccccc2)cc1O	> 10	> 10	> 10	> 10	> 10		> 10	> 10	> 10	> 10									
N=C1C(=N)c2ccccc2-c2ccccc21.[Cl-].[Ru+2].c1ccc(-c2ccccn2)nc1.c1ccc(-c2ccccn2)nc1	> 100	> 100	> 100	> 100	> 100	> 100		> 100	> 100										
CCCCCOc1ccc(C=Nc2ccc(CCc3ccc(N=Cc4ccc(OCCCCC)cc4)cc3)cc2)cc1	> 100		> 100	> 100	> 100			> 100	> 100										
COc1ccc2c(c1)C(=O)CC1c3cnccc3C(=O)N21 (stereo not drawn)	> 100	> 100	> 100	> 100	> 100	> 100	> 100	> 100	99.5										
Cc1ccc(S(=O)(=O)NC(=O)Nc2nnc(S(N)(=O)=O)s2)cc1	> 100	> 100	> 100	> 100	> 100	> 100		> 100	> 100	> 100									
Cn1c(=O)c2[nH]c(N/N=N/c3nncs3)nc2n(C)c1=O	> 100	> 100	> 100	> 100	> 100		> 100	> 100	> 100	> 100									
C#CCNC(CSSCC(N)C(=O)O)C(=O)O (stereo not drawn)	> 100	> 100	> 100	> 100	> 100		> 100	> 100	> 100	> 100									
c1ccc(-c2csc3c4ccccc4c4ccccc4[n+]23)cc1	3.36	22	35.8	7.71	2.86	> 100		13.8	31.8										
C[C@@H]1OC(=O)C[C@H]2CC(=O)N(CCC3CN(C(=O)OCc4ccccc4)c4ccccc43)C[C@@H]21 (stereo partly drawn)	> 100	> 100	> 100	> 100	> 100		> 100	> 100	> 100	> 100									
COc1ccc(N2CC(=O)N(C(=O)COc3ccc(OCC(=O)N4C(=O)CN(c5ccc(OC)cc5)C4=S)cc3)C2=S)cc1	> 100	> 100	> 100	> 100	> 100			> 100	> 100										
CC(=O)O[C@H]1CC(C)(C)C(=C=C/C(C)=C/C=C/C=C/C=C(C)/C=C2C=C(/C=C/[C@@]34O[C@]3(C)C[C@@H](O)CC4(C)C)C(=O)O/2)[C@](C)(O)C1	46.5	25.6	68.7	17.6	28.9	74.8	> 100	> 100	30.7										
CCO/C(=N/S(=O)(=O)C(F)(F)F)N(C(C)C)C(C)C	> 100	> 100	> 100	> 100	> 100		> 100	> 100		> 100									
CCOC(=O)C(C#N)(Cc1c[nH]c2ccccc12)NC(C)=O (stereo not drawn)	> 100	> 100	> 100	> 100	> 100			> 100	> 100										
CCOC(=O)c1ccc(-n2[nH]nc(C(N)=O)c2=O)cc1	> 100	> 100	> 100	> 100	> 100		> 100	> 100	> 100	> 100									
O=c1[nH]cc(NCCCl)c(=O)[nH]1	> 100	> 100	> 100	> 100	> 100	> 100	> 100	> 100	> 100										
C[C@@]1(O)C2CC3CC1(c1ccccc1)CC(/C3=N/O)/C2=N\O (stereo partly drawn)	> 100	> 100	> 100	> 100	> 100	> 100	> 100	> 100	> 100										
C[C@H](c1ccccc1)N1C(=O)[C@@H](O)[C@H]1[C@H](CO)OCc1ccccc1	> 100	> 100	> 100	> 100	> 100	> 100		> 100	> 100	> 100									
CC(C)(C)c1ccccc1N1C(=O)c2ccc3c4c(ccc(c24)C1=O)N(c1ccccc1C(C)(C)C)C3=O	> 100	> 100	> 100	> 100	> 100	> 100		> 100	> 100	> 100									
CCCCN(CCCC)Cc1cc(Nc2ccnc3cc(Cl)ccc23)ccc1O	> 100			> 100	> 100	> 100	> 100	> 100	> 100			> 100		45.1	35.9	7.82	8.29	6.59	1.38
CCNCCNC(=O)c1ccc(I)cc1	> 100	> 100	> 100		> 100	> 100		> 100	> 100	> 100									
Cc1cc([NH-])c([NH-])cc1C.[Cl][Pt+2][Cl]	> 100		> 83.5		25.3			17	> 100			24.5	> 59.8			5.24	9.48		> 77.4
C=CCC1(C#N)C(=S)NC2=C(C(=O)CC(C)(C)C2)C1c1ccccc1 (stereo not drawn)	> 100	> 100	> 100	> 100	> 100	> 100	> 100	> 100	> 100										
